Tests used:
Assay type in all cases: tissue-based, Heart left ventricle; call rule not given here
[1] = Inhibition of Sus scrofa (pig) left ventricle Ca2+-ATPase activity of cardiac myosin assessed as inorganic phosphorus released from protein at 0.05 to 0.4 uM
[2] = Inhibition of Sus scrofa (pig) left ventricle Ca2+-ATPase activity of cardiac myosin assessed as inorganic phosphorus released from protein at 0.2 uM after 10 min
[3] = Inhibition of Sus scrofa (pig) left ventricle Ca2+-ATPase activity of cardiac myosin assessed as inorganic phosphorus released from protein at 0.05 uM after 30 min; details: 0.5 h
[4] = Inhibition of Sus scrofa (pig) left ventricle Ca2+-ATPase activity of cardiac myosin assessed as inorganic phosphorus released from protein at > 0.1 uM after 10 min
[5] = Inhibition of Sus scrofa (pig) left ventricle Ca2+-ATPase activity of cardiac myosin assessed as inorganic phosphorus released from protein at 0.2 to 1 uM; details: TDE = time-dependent effect
[6] = Inhibition of Sus scrofa (pig) left ventricle Ca2+-ATPase activity of cardiac myosin assessed as inorganic phosphorus released from protein at 0.4 uM in presence of Mg2+
[7] = Inhibition of Sus scrofa (pig) left ventricle Ca2+-ATPase activity of cardiac myosin assessed as inorganic phosphorus released from protein at 0.2 uM after 1 hr
[8] = Inhibition of Sus scrofa (pig) left ventricle Ca2+-ATPase activity of cardiac myosin assessed as residual activity at 0.8 uM

COc1cccc2c1C(=O)c1c(O)c3c(c(O)c1C2=O)C[C@@](O)(C(C)=O)C[C@@H]3O[C@H]1C[C@H](N)[C@H](O)[C@H](C)O1 [DAUNORUBICIN]
inhibition (INH) [1]: Active
inhibition (INH) [2]: Active
inhibition (INH) [3]: Active
inhibition (INH) [4]: Active
inhibition (INH) [5]: tde
inhibition (INH) [6]: Not Active
inhibition (INH) [7]: Active
Activity [8]: 0.12 U

Reference: ChEMBL document CHEMBL3045450, “Studies on characteristics of ATPase activity of cardiac myosin in the presence of daunorubicin” (Med Chem Res, 2009)
